In patent US20080305544A1, “Method of Producing Nerve Cell” (KYOWA HAKKO KOGYO CO., LTD. TOKYO, JAPAN, priority 2004, published 2008):

What was measured:
[1] = system: ES cell EB5; assay: Nerve cell inducing ratio: colonies with neurite / total colonies, differentiation induction of EB5; type: cell-based; conditions: for activity to induce differentiation of embryonic stem cells into nerve cells by the combination of heparin and vitamin B12: substance added to 0.01% heparin and 100 nmol/l vitamin B12, conclusion of Example 2; for induction of nerve cells (nerve cell inducing ratio): FIG. 2
Procedure: In the following Examples, an ES cell EB5 [Nature Genet., 24, 372, (2000)] was used as the embryonic stem cell. The EB5 was inoculated into a dish coated with 0.1% of gelatin and sub-cultured at 37° C. in a CO2 incubator ventilated with 5% of carbon dioxide while keeping its undifferentiated state, using G-MEM (Invitrogen) containing 1% fetal bovine serum (manufactured by JRH Biosciences), 10% Knockout Serum Replacement (manufactured by Invitrogen), 1 mmol/l pyruvic acid (manufactured by Sigma), 0.1 mmol/l nonessential amino acids (manufactured by Invitrogen), 0.1 mmol/12-mercaptoethanol (manufactured by Nacalai Tesque), […] blasticidin (manufactured by Invitrogen) and 2×10^3 U/ml ESGRO (manufactured by Chemicon) (to be referred to as “maintenance medium” hereinafter). When differentiation of EB5 is induced, 2.5×10^3 cells of EB5 were inoculated into a 24 well plate coated with 0.1% of gelatin, a medium prepared by eliminating serum, blasticidin and ESGRO from the maintenance medium (hereinafter referred to as “differentiation induction medium”) was added at 1 ml to respective wells, and the cells were allowed to adhere thereto by incubating at 37° C. for 2 hours. Thereafter, 500 μl of PBS containing various concentration of heparin (manufactured by Sigma) or vitamin B12 (cyanocobalamin, manufactured by Nacalai Tesque) (hereinafter referred to as “test solution 1”) was added thereto and incubated at 37° C. for 14 days without changing the medium. Each test condition was carried out in tandem. In this connection, the concentrations of heparin and vitamin B12 mean their concentrations in the test solution 1. On the 14th day after addition of the test solution 1, colonies having a diameter of 50 μm or more were counted using an optical microscope to calculate the number of total colonies. Also, among the colonies, a colony on which neurite was observed was regarded as a nerve cell colony, and the nerve cell inducing ratio was calculated by the following formula. Nerve cell inducing ratio(%)=the number of nerve cell colonies/the number of total colonies×100 Nerve cell inducing differentiation ratio was examined in the same manner as in Example 1, except that PBS containing 0.01% of heparin and 100 nmol/l of vitamin B12 (hereinafter referred to as “test solution 2”), a test solution 3 containing 0.1 μg/ml of biotin [(+)-biotin, manufactured by Wako Pure Chemical Industries] in the test solution 2, a test solution 4 containing 0.42 μg/ml of K4[Fe(CN)6] (manufactured by Nacalai Tesque) in the test solution 2, a test solution 5 containing 0.081 μg/ml of putrescine (manufactured by Sigma) in the test solution 2, a test solution 6 containing 0.1 μg/ml of biotin, 0.42 μg/ml of K4[Fe(CN)6] and 0.081 μg/ml of putrescine in the test solution 2 and a test solution 7 containing 0.01% of heparin, 0.1 […] of biotin, 0.42 μg/ml of K[Fe(CN)6] and 0.081 μg/ml of putrescine were used instead of the test solution 1 in the above-described Example 1.

[2] = system: ES cell EB5; assay: Number of total colonies formed from EB5 after 14 days of differentiation induction culture; type: cell-based; conditions: vitamin B12 added; heparin 0% vs 0.01% addition condition; 14 days after commencement of culturing; FIG. 1
Procedure: In the following Examples, an ES cell EB5 [Nature Genet., 24, 372, (2000)] was used as the embryonic stem cell.
The EB5 was inoculated into a dish coated with 0.1% of gelatin and sub-cultured at 37° C. in a CO2 incubator ventilated with 5% of carbon dioxide while keeping its undifferentiated state, using G-MEM (Invitrogen) containing 1% fetal bovine serum (manufactured by JRH Biosciences), 10% Knockout Serum Replacement (manufactured by Invitrogen), 1 mmol/l pyruvic acid (manufactured by Sigma), 0.1 mmol/l nonessential amino acids (manufactured by Invitrogen), 0.1 mmol/12-mercaptoethanol (manufactured by Nacalai Tesque), […] blasticidin (manufactured by Invitrogen) and 2×10^3 U/ml ESGRO (manufactured by Chemicon) (to be referred to as “maintenance medium” hereinafter). […]
On the 14th day after addition of the test solution 1, colonies having a diameter of 50 μm or more were counted using an optical microscope to calculate the number of total colonies. Also, among the colonies, a colony on which neurite was observed was regarded as a nerve cell colony, and the nerve cell inducing ratio was calculated by the following formula.

**Q.** With O=C(O)CCCC[C@@H]1SC[C@@H]2NC(=O)N[C@@H]21 [biotin, (+)-biotin] as the compound, how does the “activity to induce differentiation of embryonic stem cells into nerve cells by the combination of heparin and vitamin B12” value [1] read?
**A.** reinforced

**Q.** For NCCCCN [putrescine], which “activity to induce differentiation of embryonic stem cells into nerve cells by the combination of heparin and vitamin B12” value [1] is on record?
**A.** reinforced

**Q.** How did the “induction of nerve cells (nerve cell inducing ratio)” value ([1]; heparin 0% addition condition, vitamin B12 added, 14 days) turn out when cyanocobalamin [vitamin B12] was run?
**A.** hardly induced

**Q.** And the “induction of nerve cells (nerve cell inducing ratio)” value ([1]; heparin 0.01% addition condition, vitamin B12 concentration varied, 14 days)?
**A.** nerve cells are induced

**Q.** With heparin as the compound, how does the “number of total colonies” value [2] read?
**A.** difference in the number of total colonies was not found

**Q.** And the “induction of nerve cells (number of nerve cell colonies)” value ([1]; vitamin B12 not added, heparin concentration varied, 14 days, FIG. 3)?
**A.** hardly induced
